This is an account of results in US20240122180A1, “FUNGICIDAL HALOMETHYL KETONES AND HYDRATES AND THEIR MIXTURES” (FMC Corporation, priority 2020, published 2024).

As a reminder, the pest or weed control is how far the test organism was held down.

What all share (format): in vivo
Assay [1] deals with Blumeria graminis f. sp. tritici (the causal agent of wheat powdery mildew). As to the kind of experiment: Test E: preventive spray on wheat seedlings, visual disease rating (100 = 100% control; * 50 ppm, ** 10 ppm, *** 250 ppm). Conditions: 250 ppm test suspension, 100 = 100% disease control, 0 = no control. The text has this: (§1) General protocol for preparing test suspensions for Tests A-E: the test compounds were first dissolved in acetone in an amount equal to 3% of the final volume and then suspended at the desired concentration (in ppm) in acetone and purified water (50/50 mix by volume) containing 250 ppm of the surfactant […] (polyhydric alcohol esters). The resulting test suspensions were then used in Tests A-E.
The test suspension was sprayed to the point of run-off on wheat seedlings. The following day the seedlings were inoculated with a spore dust of Blumeria graminis f. sp. tritici, (also known as Erysiphe graminis f. sp. tritici, the causal agent of wheat powdery mildew) and incubated in a growth chamber at 20° C. for 8 days, after which time visual disease ratings were made.
(§2) Results for Tests A-E are given in Table A. In the Table, a rating of 100 indicates 100% disease control and a rating of 0 indicates no disease control (relative to the controls). An asterisk “*” or a double asterisk “**” or a triple asterisk “***” next to the rating value indicates a 50 ppm, 10 ppm and 250 ppm test suspension was used, respectively. A dash (-) indicates the compound was not tested.

In assay [2] the test system is Puccinia recondita f. sp. tritici (the causal agent of wheat leaf rust). As to the kind of experiment: Test B: preventive spray on wheat seedlings, disease rating (100 = 100% control; * 50 ppm, ** 10 ppm, *** 250 ppm). Conditions: 100 = 100% disease control, 0 = no control; for Test B disease control rating: 50 ppm test suspension. Put shortly: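 Wheat seedlings sprayed to run-off with compound in acetone/water (50/50) containing 250 ppm PEG400, inoculated next day with Puccinia recondita f. sp. tritici spores. Held 24 h saturated at 20° C, then 6 days at 20° C; disease control rated 0–100 relative to controls.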

For assay [3], the system named is Zymoseptoria tritici (the causal agent of wheat leaf blotch). As to the kind of experiment: Test D: preventive spray on wheat seedlings, disease rating (100 = 100% control; * 50 ppm, ** 10 ppm, *** 250 ppm). Conditions: 250 ppm test suspension, 100 = 100% disease control, 0 = no control.
From the text: as §1
The test solution was sprayed to the point of run-off on wheat seedlings. The following day the seedlings were inoculated with a spore suspension of Zymoseptoria tritici (the causal agent of wheat leaf blotch) and incubated in a saturated atmosphere at 24° C. for 48 h, and then moved to a growth chamber at 20° C. for 17 days, after which time disease ratings were made.
as §2

In assay [4] the test system is Phakopsora pachyrhizi (the causal agent of Asian soybean rust). Briefly: Test A: preventive spray on soybean seedlings, visual disease rating (100 = 100% control; * 50 ppm, ** 10 ppm, *** 250 ppm). Conditions: 100 = 100% disease control, 0 = no control; for Test A disease control rating: 50 ppm test suspension. The procedure, abridged:
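Soybean seedlings sprayed to run-off with compound suspended in acetone/water with 250 ppm PEG400 surfactant, inoculated next day with P. pachyrhizi spores. Kept 24 h saturated at 22 °C, then 8 days at 22 °C before visual rating of disease control (0-100) relative to controls.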

Marks after values point to notes of the source that are not given here.

In the case of `CCOC(=O)c1cnn(COc2cccc(OCC(O)(O)C(F)(F)F)c2)c1` [compound 320], the results for the pest or weed control at 250 ppm in assay [1] (Blumeria graminis) and in assay [3] (Zymoseptoria tritici) were 91% and 81%, respectively. In addition, the pest or weed control at 10 ppm was found to be 68% in assay [2] (Puccinia recondita, 10 ppm test suspension) and 89% in assay [4] (Phakopsora pachyrhizi, 10 ppm test suspension).

For the compound `CC(=O)N1CC(c2ccc(OCC(O)(O)C(F)(F)F)cc2)C1` [compound 384], the “Test E disease control rating” value in assay [1] is 87*** %. For the same compound, in assay [2], the “Test B disease control rating” value amounted to 83%. Also, the “Test D disease control rating” value in assay [3] is given as 48*** %. For the same compound, the “Test A disease control rating” value in assay [4] is reported as 99%.

Regarding `CCOC(=O)c1cnn(Cc2ccc(O/C=C(\OCC)C(F)(F)F)c(I)c2)c1` [compound 374], the “Test E disease control rating” value in assay [1] is given as 76*** %. Further, the “Test B disease control rating” value in assay [2] stood at 0%. In assay [3], the “Test D disease control rating” value was 0*** %. The “Test A disease control rating” value in assay [4] stood at 0%.
